Results reported in the supplement of paper PMC10307832.

Columns and labels:
Assay in all cases: relative viability (nuclei count vs DMSO), 5 days (fraction); higher = more cells survive
NCI-H2085 = system: NCI-H2085
How it was run: (§1)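 Lung cancer cell lines in 1536-well plates were dosed by pin tool the day after seeding, either with one drug alone or with a fixed anchor-drug dose plus five library-drug doses (not always all listed) in √10 steps. After 5 days, cells were fixed and their nuclei stained in one step (final 0.05% Triton X-100, 1% formaldehyde, 1 ug/ml Hoechst), then counted on 4× images. Relative viability is the nuclei count in treated wells divided by that in vehicle wells. Values are medians of duplicate plates.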

NCI-H2126 = system: NCI-H2126
How it was run: as §1

NCI-H2342 = system: NCI-H2342
How it was run: as §1

NCI-H2347 = system: NCI-H2347
How it was run: as §1

NCI-H358 = system: NCI-H358
How it was run: as §1

NCI-H460 = system: NCI-H460
How it was run: as §1

NCI-H522 = system: NCI-H522
How it was run: as §1

NCI-H650 = system: NCI-H650
How it was run: as §1

NCI-H838 = system: NCI-H838
How it was run: as §1

PC-14 = system: PC-14
How it was run: as §1

SW 1573 = system: SW 1573
How it was run: as §1

UMC-11 = system: UMC-11
How it was run: as §1

## C[C@@H]1CN(CC(=O)Nc2ccc3c(c2)Cc2cccc(-c4cc(=O)cc(N5CCOCC5)o4)c2S3)C[C@H](C)O1 + CC(=O)c1c(C)c2cnc(Nc3ccc(N4CCNCC4)cn3)nc2n(C2CCCC2)c1=O [Palbociclib] (partner 0.5 µM)
NCI-H2085; first compound 0.04 µM
  relative viability: 0.476
NCI-H2085; first compound 0.1265 µM
  relative viability: 0.436
NCI-H2085; first compound 0.4 µM
  relative viability: 0.498
NCI-H2085; first compound 4 µM
  relative viability: 0.419
NCI-H2126; first compound 0.04 µM
  relative viability: 0.384
NCI-H2126; first compound 0.1265 µM
  relative viability: 0.343
NCI-H2126; first compound 0.4 µM
  relative viability: 0.348
NCI-H2126; first compound 4 µM
  relative viability: 0.334
NCI-H2342; first compound 0.04 µM
  relative viability: 0.525
NCI-H2342; first compound 0.1265 µM
  relative viability: 0.556
NCI-H2342; first compound 0.4 µM
  relative viability: 0.496
NCI-H2342; first compound 4 µM
  relative viability: 0.455
NCI-H2347; first compound 0.04 µM
  relative viability: 0.377
NCI-H2347; first compound 0.1265 µM
  relative viability: 0.493
NCI-H2347; first compound 0.4 µM
  relative viability: 0.459
NCI-H2347; first compound 4 µM
  relative viability: 0.404
NCI-H358; first compound 0.04 µM
  relative viability: 0.123
NCI-H358; first compound 0.1265 µM
  relative viability: 0.132
NCI-H358; first compound 0.4 µM
  relative viability: 0.12
NCI-H358; first compound 4 µM
  relative viability: 0.127
NCI-H460; first compound 0.04 µM
  relative viability: 0.271
NCI-H460; first compound 0.1265 µM
  relative viability: 0.155
NCI-H460; first compound 0.4 µM
  relative viability: 0.137
NCI-H460; first compound 4 µM
  relative viability: 0.143
NCI-H522; first compound 0.04 µM
  relative viability: 0.934
NCI-H522; first compound 0.1265 µM
  relative viability: 0.839
NCI-H522; first compound 0.4 µM
  relative viability: 1.06
NCI-H522; first compound 4 µM
  relative viability: 0.972
NCI-H650; first compound 0.04 µM
  relative viability: 0.319
NCI-H650; first compound 0.1265 µM
  relative viability: 0.389
NCI-H650; first compound 0.4 µM
  relative viability: 0.378
NCI-H650; first compound 4 µM
  relative viability: 0.281
NCI-H838; first compound 0.04 µM
  relative viability: 0.233
NCI-H838; first compound 0.1265 µM
  relative viability: 0.204
NCI-H838; first compound 0.4 µM
  relative viability: 0.207
NCI-H838; first compound 4 µM
  relative viability: 0.179
PC-14; first compound 0.04 µM
  relative viability: 0.529
PC-14; first compound 0.1265 µM
  relative viability: 0.506
PC-14; first compound 0.4 µM
  relative viability: 0.568
PC-14; first compound 4 µM
  relative viability: 0.423
SW 1573; first compound 0.04 µM
  relative viability: 0.501
SW 1573; first compound 0.1265 µM
  relative viability: 0.337
SW 1573; first compound 0.4 µM
  relative viability: 0.393
SW 1573; first compound 4 µM
  relative viability: 0.264
UMC-11; first compound 0.04 µM
  relative viability: 0.33
UMC-11; first compound 0.1265 µM
  relative viability: 0.332
UMC-11; first compound 0.4 µM
  relative viability: 0.321
UMC-11; first compound 4 µM
  relative viability: 0.338
